Source: patent publication US6121241A, “Anticoagulant peptide aldehyde derivatives” (Gyogyszerkutato Intezet Kft., priority 1996, dated 2000)
Where two headings read alike, the source gives them in different places.

What was measured:
[1] = molecular target: tissue plasminogen activator (tPA) (Homo sapiens, UniProt P00750); assay: Fibrin-plate method, plasmin formation induced by tPA; type: biochemical; conditions: for IC50: fibrin-plate method, hydrolyzed area reduced by 50%
Source text: (§1) The inhibitory effect of the new compounds of the invention on plasmin (PL) as well as on plasmin formation induced by tissue plasminagen activator (tPA) and urokinase (UK) was studied by the […] [D. Bagdy et al.; Thromb. Haemost. 67, 325 (1992)]. Compounds C1 and C3 served as controls. […] V. Jackson et al., J. Cardiovasc. Pharmacol. 21, 587 (1993)].
(§2) ^a IC50 = peptide concentration (mM) where the hydrolyzed area o
(§3) the fibrin plate is reduced by 50% compared to the control

[2] = tested on: activated partial thromboplastin time (APTT); assay: Ex vivo APTT in citrate plasma of rabbits after p.o. dosing; set-up: species or system New Zealand white rabbits; conditions: p.o. 5 mg/kg
Description: (§4) The anticoagulant and platelet aggregation inhibiting effect of the compounds of general formula (I) was studied In New Zealand white rabbits ex vivo according to D. Bagdy et al [Thromb. Haemost 67. 357 (1992). The compounds were dissolved in buffered isotonic saline solution and administered i.v. (0,04-5.0 mg/kg) or by infusion (0.25-5.0 mg/kg/h) or subcutaneously (0.5-6.0 mg/kg) or p.o. (2.5-20 mg/kg). The effect of the compounds was detectable already within 30 minutes following p.o. administration, peak values were attained after 60-180 minutes and the therapeutic level was maintained dose-dependently for 3→6 hours.
(§5) The in vivo effect of D-cHga Pro-Arg-H (1) is presented in detail in Tables 5 and 6. The corresponding values of C1 are listed as controls. The compound was administered p.o. in doses of 5 mg/kg. The blood samples drawn from the caudal vein in every 30-60 minutes were analyzed. The whole blood clotting time (WBCT) and the inhibition of thrombin-induced blood platelet aggregation (PAI) were determined. The activated partial thromboplastin time (APTT) and the thrombin time (TT) in the citrate plasma obtained from the blood sample were also measured. The APTT and TT values are compiled in Table 5 and the WBCT and PAI values in Table 6.

plasmin (PL) = plasmin (PL) (Homo sapiens, UniProt P00747); assay: Fibrin-plate method, plasmin; type: biochemical; conditions: for IC50: fibrin-plate method, hydrolyzed area reduced by 50%
Source text: as §1, §2, §3

[3] = molecular target: T1, plasma clot entrapped thrombin (Homo sapiens, UniProt P00734); assay: Inhibition of thrombin entrapped in plasma clot (methods M1, M3); type: biochemical; conditions: platelet-rich human plasma clot; Tos-Gly-Pro-Arg-pNA substrate
T1 construct: Here prothrombin is converted to thrombin; from tissue; host or cells: clot of recalcified platelet-rich human citrate plasma
Description: The plasma clot was obtained by the recalcification of platelet-rich human citrate plasma and fibrin gel by the coagulation of human fibrinogen with human thrombin Z-D-Arg-Gly-Arg-pNA and Tos Gly-Pro-Arg-pNA were used as substrates for measuring the activity of factor Xa and thrombin (methods M1-M5).
Preparation of Plasma Clot
a) Platelet-rich plasma (PRP) is prepared by centrifuging a 9:1 mixture of human blood and 3.8% aqueous sodium citrate solution (1/2) for 5 minutes at 240×g.
b) 200 μL of PRP are placed in each reaction vessel, 80 μL of 40 mM calcium chloride solution is added and the mixture is left to stand at room temperature for one hour. The plasma clot formed is rinsed mildly with 6×2 ml of 0.9% sodium chloride solution followed by 5 minute sedimentation to remove the dissolved enzymes (factor Xa and thrombin). The thrombin content of the washings is assayed as follows.
c) To 400 μL of washing liquid 100 μL of 1 mM Tos-Gly-Pro-Arg-pNA substrate solution is added and the mixture is incubated for 30 minutes at 37° C., then the reaction is stopped by the addition of 100 μL of 50% acetic acid. 150 μL portions of this mixture are transferred into the wells of the 96-well microtiter plate and the extinction is measured at 405 nm (ELISA READER SLT Laborinstrument GmbH, Austria). When the washing is successful, the extinction is less than 5% of the control
Assay of the Inhibition of Thrombin Entrapped in Plasma Clot
a) Peptide inhibitor solutions are prepared by the process described in Method M2, point a).
b) After draining the washing liquid, 400 μL of the peptide solution (3 parallel samples for each concentration) and 400 μL of buffer, serving as control, are placed on the clot (Method M1) and the mixture is incubated for 5 minutes at 37° C. Thereafter 100 μL of […] Tos-Gly-Pro-Arg-pNA substrate solution is added and incubation at 37° C. is continued for further 30 minutes, then the reaction is stopped by the addition of 100 μL of 50% acetic acid. The operation is continued as described in Method M2, point c).

[4] = tested on: thrombin-induced blood platelet aggregation; assay: Ex vivo inhibition of thrombin-induced blood platelet aggregation (PAI) in rabbits after p.o. dosing; set-up: species or system New Zealand white rabbits; conditions: p.o. 5 mg/kg
Description: as §4, §5

[5] = related to the activity of C1 (1/IC50 = 1)

Chain of plasmin (PL) (P00747 581-810 limits assumed, species assumed): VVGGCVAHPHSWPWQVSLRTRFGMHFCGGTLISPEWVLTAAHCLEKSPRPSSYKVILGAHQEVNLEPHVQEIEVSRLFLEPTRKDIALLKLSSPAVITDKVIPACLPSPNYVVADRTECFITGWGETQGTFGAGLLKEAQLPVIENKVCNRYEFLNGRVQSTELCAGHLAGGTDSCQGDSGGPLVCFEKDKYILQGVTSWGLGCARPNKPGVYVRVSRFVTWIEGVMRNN
Chain of plasmin (PL) (P00747 97-580 partner limits assumed, species assumed): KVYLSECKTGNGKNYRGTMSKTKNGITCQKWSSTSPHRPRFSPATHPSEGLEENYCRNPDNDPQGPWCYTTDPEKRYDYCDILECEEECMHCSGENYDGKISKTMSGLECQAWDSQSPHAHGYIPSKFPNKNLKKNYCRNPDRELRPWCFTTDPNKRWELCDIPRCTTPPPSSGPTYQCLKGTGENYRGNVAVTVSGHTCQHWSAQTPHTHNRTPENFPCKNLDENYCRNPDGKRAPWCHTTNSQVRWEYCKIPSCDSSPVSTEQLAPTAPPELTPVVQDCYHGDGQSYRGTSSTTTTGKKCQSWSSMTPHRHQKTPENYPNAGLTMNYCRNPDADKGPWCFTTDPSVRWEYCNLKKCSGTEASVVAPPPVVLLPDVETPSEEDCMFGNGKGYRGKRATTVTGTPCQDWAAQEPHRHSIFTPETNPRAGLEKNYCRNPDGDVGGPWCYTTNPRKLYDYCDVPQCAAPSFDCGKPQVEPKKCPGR
Chain of tissue plasminogen activator (tPA) (P00750 36-562, species assumed): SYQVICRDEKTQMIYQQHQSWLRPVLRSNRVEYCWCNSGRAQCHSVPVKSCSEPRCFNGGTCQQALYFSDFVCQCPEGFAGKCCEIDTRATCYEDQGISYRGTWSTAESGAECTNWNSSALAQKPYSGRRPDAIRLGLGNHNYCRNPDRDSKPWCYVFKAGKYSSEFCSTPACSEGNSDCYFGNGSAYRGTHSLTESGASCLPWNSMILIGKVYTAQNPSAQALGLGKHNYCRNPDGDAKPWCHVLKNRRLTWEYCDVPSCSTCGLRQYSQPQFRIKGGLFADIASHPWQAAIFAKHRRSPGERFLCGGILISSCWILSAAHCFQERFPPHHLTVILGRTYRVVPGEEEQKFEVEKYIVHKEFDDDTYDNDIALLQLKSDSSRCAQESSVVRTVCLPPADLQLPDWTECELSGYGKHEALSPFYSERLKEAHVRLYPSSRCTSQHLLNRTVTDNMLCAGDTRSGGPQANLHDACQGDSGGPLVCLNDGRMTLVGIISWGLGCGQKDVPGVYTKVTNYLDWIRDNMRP

Structure (SMILES) | IC50 [1] | APTT relative clotting time ([2]; 0 min) | APTT relative clotting time ([2]; 30 min) | APTT relative clotting time ([2]; 45 min) | APTT relative clotting time ([2]; 60 min) | APTT relative clotting time ([2]; 90 min) | APTT relative clotting time ([2]; 120 min) | APTT relative clotting time ([2]; 180 min) | APTT relative clotting time ([2]; 240 min) | APTT relative clotting time ([2]; 300 min) | IC50 (plasmin (PL)) | IC50 [3] | PAI(%) ([4]; 0 min) | PAI(%) ([4]; 30 min) | PAI(%) ([4]; 45 min) | PAI(%) ([4]; 60 min) | PAI(%) ([4]; 90 min) | PAI(%) ([4]; 120 min) | PAI(%) ([4]; 180 min) | PAI(%) ([4]; 240 min) | further results
N=C(N)NCCC[C@@H](C=O)NC(=O)[C@H]1CCCN1C(=O)C(O)C1CCCCCC1.N=C(N)NCCC[C@@H](C=O)NC(=O)[C@H]1CCCN1C(=O)C(O)C1CCCCCC1.O=S(=O)(O)O (stereo partly drawn) [Compound 1, D-2-Cycloheptyl-2-hydroxyacetyl-L-prolyl-L-arginine aldehyde hemisulfate] | 74 µM | 1.0 | 2.01 ± 0.43 | 2.25 ± 0.43 | 2.32 ± 0.43 | 2.11 ± 0.31 | 1.84 ± 0.11 | 1.66 ± 0.10 | 1.37 ± 0.08 | 1.31 ± 0.09 | 83 µM | 0.52 µM | 0% | 71.0 ± 19.4% | 74.0 ± 13.9% | 91.0 ± 4.5% | 93.0 ± 3.5% | 92.4 ± 6.5% | 71.6 ± 19.8% | 49.4 ± 21.5% | B: relative efficacy, tPA [1]: 1.8; times lower activity than compound C3, second enzyme (tPA) ([1]; versus C3 of Table 4): 12; B: relative efficacy, PL (plasmin (PL)): 0.6; times lower activity than compound C3, first enzyme (PL) (plasmin (PL); versus C3 of Table 4): 7.5
CN[C@H](Cc1ccccc1)C(=O)N1CCC[C@H]1C(=O)N[C@H](C=O)CCCNC(=N)N [Compound C1, D-MePhe-Pro-Arg-H] | 132 µM | 1.0 | 1.27 ± 0.38 | 1.30 ± 0.02 | 1.37 ± 0.03 | 1.45 ± 0.09 | 1.43 ± 0.11 | 1.39 ± 0.09 | 1.31 ± 0.11 | 1.25 ± 0.22 | 54 µM | 0.38 µM | 0% | 52.8 ± 14.7% | 58.4 ± 15.6% | 54.2 ± 11.6% | 83.2 ± 8.9% | 75.2 ± 12.3% | 47.5 ± 20.9% | 32.2 ± 16.0% | B: relative efficacy, tPA [1, 5]: 1.0; B: relative efficacy, PL (plasmin (PL); [5]): 1.0
